Earlier results on 2 sequences are cited in PMC3807243 (Biochemical pharmacology, 2012).

Like-named read-outs stand apart in the source and are kept apart here.

This data set has as its system EphB4. The note with it: ref [38]–[40].

Turning to TNYLFSPNGPIA, the IC50 (read-out: IC50 for inhibition of ephrin-B2 binding to EphB4) was ~150 µM. As for TNYLFSPNGPIARAW [TNYL-RAW], the “Binding affinity for EphB4” value is “low nanomolar”. Moreover, the half-inhibitory concentration (IC50) (read-out: IC50 for inhibition of EphB4 binding) was ~0.015 µM.
